Laboratory results reported in article PMC11984905, “Chiral Switch of Gadopiclenol: New Standards in MRI Probes” (Advanced Science, 2025).
Where “and” joins values, the source holds several entries; their conditions need not be identical. Equal entries are not always repeated. Where two headings read alike, the source gives them in different places.

Key:
[1] = Kinetic inertness: dissociation of Gd(III)-complexes in 0.01–1.0 M HCl followed by HPLC; assay type: physicochemical; conditions: for k d at pH = 7.4: dissociation rate calculated at pH 7.4, 25 °C; for k1: proton-assisted dissociation, [H+]≤0.15 M: [Na+]+[H+]=0.15 M
Source text: The kinetic inertness of the Gd(III)‐complexes with the different isomers formed by rac‐L1 and rac‐L2 was characterized by the rates of the dissociation reactions taking place in 0.01–1.0 M HCl solution. The dissociation reactions were followed by measuring the integral values of the Gd(III)‐complexes with the different isomers of rac‐L1 and rac‐L2 ligands with HPLC. The conditions of the HPLC experiments for the kinetic studies of the Gd(III)‐complexes with rac‐L1 and rac‐L2 ligands are summarized in Tables S1 and S2 (Supporting Information), respectively. The samples were kept at 25 °C in a well‐closed vessel. For the HPLC analysis, 100 µL samples were withdrawn from the solutions. The measurements were performed with 0.2 mM solution of Gd(III)‐complexes. The pseudo‐first‐order rate constants (k d) were calculated by fitting the HPLC integral – t data pairs to Equation (1). (1) At=Ar−Ave^−kdt+Av where A r, A v, and A t are the integral values of the reactants, the product, and reaction time t. The temperature was maintained at 25 °C and the ionic strength of the solutions was kept constant at [H^+]≤0.15 M, [HCl]+[NaCl] = 0.15 M. The calculation of the kinetic parameters was performed by the fitting of the absorbance – time and relaxation rate – time data pairs with the Micromath Scientist computer program (version 2.0, Salt Lake City, UT, USA).
The dissociation reactions of Gd(III)-complexes with the different isomers formed by rac-L1 and rac-L2 have been studied by HPLC method (Tables S1 and S2) at 25 °C in 0.01 – 1.0 M HCl solution to guarantee the pseudo-first-order kinetic condition. Area values as a function of time for the dissociation reactions of Gd(III)-complexes formed with the different stereoisomers of rac-L1 obtained at 25 °C in 1.0 M HCl solution are shown in Figure S48.
In the presence of HCl excess, the decomplexation of Gd(III)-complexes can be treated as a pseudo-first-order process and the reaction rate can be expressed by Equation (S9), where kd is a pseudo-first-order rate constant, [GdL]t and [GdL]tot are the concentrations of the GdL species at time t and the total concentration of the complex, respectively.
The rates of the dissociation reactions have been studied at different concentrations of HCl ([HCl]=0.01 – 1.0 M, 25 °C). The kd values obtained for the Gd(III)-complexes with the different isomers of rac-L1 and rac-L2 ligands as a function of [H^+] are shown in Figures S49 and S50.
The obtained kd pseudo-first order rate constants are directly proportional to the concentration of H^+. The increase in the kd values with increasing concentration of H^+ can be interpreted in terms of the proton assisted dissociation of Gd(III)-complexes. […] The proton assisted dissociation of Gd(III)-complexes might be explained by the equilibrium formation of a protonated *Gd(HL) intermediate (Equation (S11)), which dissociates spontaneously (Equation (12)).
where k0, and k1 = kGdHL×K^HGdHL are the rate constants characterizing the spontaneous and proton-assisted dissociation of Gd(III)-complexes. The protonation constant (K^HGdHL) of Gd(DOTA)-like complexes are very small (Gd(DOTA): K^HGdHL =14).^[22] By considering very low protonation constant of Gd(III)-complexes with A, C and D isomers of rac-L1 and A’, C’ and D’ isomers of rac-L2 ligands (K^HGdHL<<10), the denominator of Equation (S14) (1>> K^HGdHL [H^+]) can be neglected, so Equation (S14) can be simplified in the form of Equation (S15). The k0 and k1 values of the Gd(III) complexes with A, C and D isomers of rac-L1, and A’, C’ and D’ isomers of rac-L2 ligands have been calculated by fitting of the kinetic data (Figures S49 and S50) to Equation (S15).
The k1 rate and logK^HGdHL protonation constants characterizing the acid-catalyzed decomplexation of Gd(III)-complexes formed with the different stereoisomers of rac-L1 and rac-L2 are presented and compared with those of [Gd(PCTA)], [Gd(DOTA)]^-, [Gd(HP-DO3A)] and [Gd(BT-DO3A)] in Table S19.

[2] = cited from earlier work
[3] = Relaxivity at 21 / 400 MHz and 25 °C in 0.15 M NaCl; assay type: physicochemical; conditions: 400 MHz
Description: The relaxivity values were calculated from the longitudinal relaxation time of H2O protons (T 1) measured at 21 MHz on a Stelar relaxometer connected to a Bruker WP80 NMR electromagnet adapted to variable‐field measurements (15−80 MHz proton Larmor frequency). The temperature of the sample holder was controlled with a thermostatted air stream. The longitudinal relaxation time was measured with the “inversion recovery” method (180° – τ – 90°) by using 12 different τ values with typical 90° pulse width of 6.4 µs, 4 scans. The measurements were performed with 1 mM solution of the Gd(III)‐complexes with rac‐L1, ent‐L1, rac‐L2, and ent‐L2 ligands, so the relaxivity values were given as r 1 = […] where T 1p and T 1w were the relaxation time of bulk water protons in the presence and absence of paramagnetic species, respectively. The variable pH relaxivity measurements of Gd(III)‐complexes with rac‐L1, ent‐L1, rac‐L2, and ent‐L2 ligands could be carried out by direct titration of the samples in the pH range 2.5–9.0 (21 MHz, 25 °C, 0.15 M NaCl). The pH was adjusted by stepwise addition of concentrated NaOH or HCl solution.
The stability constant of Gd(III)‐complexes with rac‐L2 and ent‐L2 ligands were determined by the measurement of the proton relaxation rates (r 1) studying the competition reaction of rac‐L2 and ent‐L2 ligands with AAZTA for Gd(III) ion at pH = 4.0 in 0.15 M NaCl solution. In these experiments, the concentration of Gd^3+, rac‐L2, and ent‐L2 ligands was 2.0 mM, while that of the AAZTA was varied between 1.0 and 6.0 mM (5 × 1.5 mL samples). The pH was adjusted to pH 4.0 by stepwise addition of concentrated NaOH or HCl solutions. The samples were kept at 70 °C for a month and then at 25°C for two months in order to attain the equilibrium (the time needed to reach the equilibria was determined by ^1H‐NMR relaxometry). ^1H‐NMR relaxometric measurement of Gd(III) – rac‐L2 – AAZTA and Gd(III) – ent‐L2 – AAZTA systems were performed with a Bruker Avance III 400 (9.4 T) equipped with BB inverse z gradient probe (5 mm). The longitudinal relaxation time (T 1) was measured with the “inversion recovery” method (180° – τ – 90°) by using 12 different τ values with typical 90° pulse width of 12.0 µs, 4 scans at 298 K. The stability constants of [Gd(rac‐L2)] and [Gd(ent‐L2)] complexes were calculated by considering the protonation constants of AAZTA ligand and the stability constant of [Gd(AAZTA)]^− complex (AAZTA: logK 1 ^H = 10.06, logK 2 ^H = 6.50, logK 3 ^H = 3.77, logK 4 ^H = 2.33, logK 5 ^H = 1.51; [Gd(AAZTA)]^−: logK GdL = 18.93, 0.15 M NaCl, 25 °C).^[ [47] ^] The equilibrium constants were calculated with the program PSEQUAD.^[ [48] ^]

[4] = 0.15 M NaCl, 25 °C; cited from earlier work
[5] = cited from earlier work; for ^298K r 1 [1.5 T] / r 1 ^310K [1.5 T]: water; for τ R: Table 2

Question: What does the source list for `O=C(O)CCC(C(=O)[O-])N1CCN(C(CCC(=O)O)C(=O)[O-])Cc2cccc(n2)CN(C(CCC(=O)O)C(=O)[O-])CC1.[Gd+3]` (racemic) [[Gd(rac-L1)] A (RSR/SRS)]?
Answer: k d at pH = 7.4 [1]: 1.84×10^-12 s^−1; k d at pH = 7.4 ([1]; listed as RSR/SRS (A)): 1.84 × 10^−12 s^−1; k1 ([1]; 25 °C): (4.6±0.2) ×10^-5 M^-1s^-1

Question: Which “k d at pH = 7.4” value [1] does the source give for `O=C(O)CCC(C(=O)[O-])N1CCN(C(CCC(=O)O)C(=O)[O-])Cc2cccc(n2)CN(C(CCC(=O)O)C(=O)[O-])CC1.[Gd+3]` (racemic) [[Gd(rac-L1)] B (RSS/SRR)] here?
Answer: The value was 1.28×10^-11 s^−1.

Question: And the “k d at pH = 7.4” value ([1]; listed as RSS/SRR (B))?
Answer: The value was 1.28 × 10^−11 s^−1.

Question: What about the k1 ([1]; 25 °C) of the same compound?
Answer: Its k1 is “(3.2±0.4) ×10^-4 M^-1s^-1”.

Question: What about the “K^HGd(HL)” value ([1]; protonation constant of the *Gd(HL) intermediate, 25 °C) of the same compound?
Answer: Its value is 2.0 ± 0.4 M⁻¹.

Question: Which results are given for `O=C(O)CCC(C(=O)[O-])N1CCN(C(CCC(=O)O)C(=O)[O-])Cc2cccc(n2)CN(C(CCC(=O)O)C(=O)[O-])CC1.[Gd+3]` (racemic) [[Gd(rac-L1)] D (RRS/SSR)]?
Answer: k d at pH = 7.4 [1]: 4.95×10^-13 s^−1; k d at pH = 7.4 ([1]; listed as RRS/SSR (D)): 4.95 × 10^−13 s^−1; k1 ([1]; 25 °C): (1.2±0.1) ×10^-5 M^-1s^-1

Question: With `O=C(CC[C@H](C(=O)[O-])N1CCN([C@@H](CCC(=O)NCC(O)CO)C(=O)[O-])CCN([C@H](CCC(=O)NCC(O)CO)C(=O)[O-])Cc2cccc(n2)C1)NCC(O)CO.[Gd+3]` (relative stereo) [[Gd(rac-L2)] A’ (RSR/SRS)] as the compound, how does the “k d at pH = 7.4” value [1] read?
Answer: The value was 1.85×10^-12 s^−1.

Question: What about the “k d at pH = 7.4” value ([1]; listed as RSR/SRS (A′)) of the same compound?
Answer: The value was 1.85 × 10^−12 s^−1.

Question: And the k1 ([1]; 25 °C)?
Answer: The k1 was “(4.7±0.1) ×10^-5 M^-1s^-1”.

Question: Which “K^HGd(HL)” value ([2]; 1.0 M KCl, 25 °C) does the source give for `O=C([O-])CN1CCN(CC(=O)[O-])Cc2cccc(n2)CN(CC(=O)[O-])CC1.[Eu+3]` [[Eu(PCTA)]] here?
Answer: The value was 1.72 M⁻¹.

Question: What about the “k d at pH = 7.4” value ([2]; pH 7.4, 1.0 M KCl, 25 °C) of the same compound?
Answer: The value was 2.0 × 10^−11 ([Eu(PCTA)]) s^−1 and 2.0×10^-11 s^−1.

Question: Which r1p [3] does the source give for `CC1(N(CC(=O)[O-])CC(=O)[O-])CN(CC(=O)[O-])CCN(CC(=O)[O-])C1.[Gd+3]` [[Gd(AAZTA)]^−, reference compound] here?
Answer: The r1p was 6.56 ± 0.08 mM⁻¹ s⁻¹.

Question: What about the “logK GdL” value [4] of the same compound?
Answer: Its value is 18.93.

Question: Which results are given for `O=C([O-])CN1CCN(CC(=O)[O-])CCN(CC(=O)[O-])CCN(CC(=O)[O-])CC1.[Gd+3]` [[Gd(DOTA)]^−]?
Answer: k1 ([2]; 0.15 M NaCl, 25 °C): 1.8e-06 M⁻¹ s⁻¹; K^HGd(HL) ([2]; 3.0 M NaClO4, 25 °C): 14^d) M^-1; k1 ([2]; 25 °C): 8.4e-06 M⁻¹ s⁻¹; k d at pH = 7.4 ([2]; pH 7.4, 0.15 M NaCl, 25 °C): 7.3×10^-14 s^−1; k d at pH = 7.4 ([2]; pH 7.4, 25 °C): 3.3×10^-14 s^−1; k0 ([2]; spontaneous dissociation, 0.15 M NaCl, 25 °C): 6.7×10^-11 b) s^-1; ^298K r 1 [1.5 T] [5]: 4.2 mM⁻¹ s⁻¹; r 1 ^310K [1.5 T] [5]: 3.3 mM⁻¹ s⁻¹; τ R [5]: 90 ps; q [5]: 1; τ M1 [5]: 208 ns

Question: With `CC(O)CN1CCN(CC(=O)[O-])CCN(CC(=O)[O-])CCN(CC(=O)[O-])CC1.[Gd+3]` (centres unmarked) [[Gd(HP-DO3A)]] as the compound, how does the k1 ([2]; 0.15 M NaCl, 25 °C) read?
Answer: The k1 was 0.00029 M⁻¹ s⁻¹.

Question: And the k1 ([2]; 25 °C)?
Answer: Its k1 is 0.00026 M⁻¹ s⁻¹.

Question: What about the “k d at pH = 7.4” value ([2]; pH 7.4, 0.1 M NaCl, 25 °C) of the same compound?
Answer: Its value is 1.0×10^-11 s^−1.

Question: What about the “k d at pH = 7.4” value ([2]; pH 7.4, 0.15 M NaCl, 25 °C) of the same compound?
Answer: The value was 1.2×10^-11 s^−1.

Question: Which “^298K r 1 [1.5 T]” value [5] does the source give for `O=C([O-])CN1CCN(CC(=O)[O-])Cc2cccc(n2)CN(CC(=O)[O-])CC1.[Gd+3]` [[Gd(PCTA)]] here?
Answer: Its value is 6.4 mM⁻¹ s⁻¹.

Question: And the “r 1 ^310K [1.5 T]” value [5]?
Answer: The value was 4.9 mM⁻¹ s⁻¹.

Question: What about the τ R [5] of the same compound?
Answer: Its τ R is 63 ps.

Question: And the q [5]?
Answer: The q was 2.

Question: What about the “τ M1” value [5] of the same compound?
Answer: Its value is 151 ns.

Question: What about the “τ M2” value [5] of the same compound?
Answer: The value was 36 ns.
